Consider four compounds from patent US20260306460A1, “COMPOSITION FOR REMOVING AND INHIBITING SENESCENT CELLS, AND USES THEREOF” (LIFECEUTIX CO., LTD., priority 2023, published 2026).

One data set deals with senescent foreskin cells. The data set can be described thus: Survival of senescent human cells treated with supernatant (secreted fluid) from death-induced cells, Example 13. The note with it: Table 8; supernatant from dying senescent cells treated at 30, 90 or 270 μM (as Example 11); senescent treated cells. Format: cell-based.
The test system of a further data set is naturally aged mice. As to the kind of experiment: Anti-aging evaluation in naturally aged mice, Example 31, Table 55.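 On all read-outs here: Vehicle-dosed control mice received solution alone at matching volume, values compare test-compound-treated aged mice against that control.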 It is filed as in vivo, mouse. Particulars: for Femur Ctsk mRNA / Kidney Agtr1a mRNA / Liver IL6 mRNA / Liver MMP3 mRNA / Liver p16 mRNA / Open Field Test Time in Center: untreated = 100%; for Heart Sur2a mRNA / Joint Col2a1 mRNA / Skin Col1a1 mRNA / Skin SDF1 mRNA: untreated = 1.0; for Muscle Mass: untreated 0.64 g; for Fat Mass: untreated 0.82 g; for Cataract incidence: untreated 83%.

Data set [1] deals with carbon tetrachloride-induced liver fibrosis mice. The data set can be described thus: Carbon tetrachloride-induced liver fibrosis mice, Example 31, Table 57. The note with it: CCl4-induced liver fibrosis mice, untreated = 100%. It is filed as in vivo, mouse. The essentials: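 Mice with induced hepatic fibrosis received either the test compound or, as controls, an equal volume of vehicle solution alone. Once dosing ended, liver tissue was harvested and total RNA was isolated. cDNA was synthesized from this RNA, and quantitative RT-PCR was run on it to measure hepatic mRNA levels of the fibrosis- and senescence-related genes.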

Data set [2] concerns HMGN1 secreted from senescent A549 cells. The data set can be described thus: HMGN1 secretion (ELISA) from senescent A549 cancer cells, Example 12.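 Further: A549 cells made senescent by doxorubicin exposure, with DMSO-treated cells serving as the non-senescent control.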 The note with it: senescent untreated = 100%; 30 μM; 90 μM for LX-305, 905, 1302, 1601, 1603, 2003, 2702, 2901, 3106; 270 μM for LX-1103, 2005, 2007. It is filed as cell-based, human.
Experimental: Cells were treated with doxorubicin or control (DMSO) and cultured.
The test system of data set [3] is bleomycin-induced pulmonary fibrosis mice. As to the kind of experiment: Bleomycin-induced pulmonary fibrosis mice, Example 31, Table 56. Format: in vivo, mouse. The note with it: untreated = 100%. The essentials: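 After treatment with test compound or vehicle alone, lungs of bleomycin-induced pulmonary fibrosis mice were harvested. Total RNA extracted and gene expression quantified by qRT-PCR.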

Each structure is given as a SMILES string.

Experimental for senescent foreskin cells: After 3 days, cell viability was measured using CellTiter-Glo Luminescent Cell Viability Assay (Promega) or light microscopy.
During this additional culture, by checking with an optical microscope, etc., the medium supernatants containing secreted fluid from normally proliferating and senescent cells in which cell death was induced were obtained. The obtained medium supernatant was replaced with the medium of normally proliferating and senescent cells, respectively, and cell survival rate was measured after 3 days.

In the case of `O=C(O)c1cc(/N=N/c2ccc(S(=O)(=O)Nc3ccccn3)cc2)ccc1O` [LX-1302, Sulfasalazine], in the data set on senescent foreskin cells, the Survival is 98.5. In addition, in the data set on naturally aged mice, the “Femur Ctsk mRNA” value was 75%, the “Heart Sur2a mRNA” value was 2.3 fold, the “Joint Col2a1 mRNA” value amounted to 2.5 fold and the “Kidney Agtr1a mRNA” value worked out at 62%. In addition, in the data set with naturally aged mice, the “Liver IL6 mRNA” value is on record as 48%, the “Liver MMP3 mRNA” value came out at 47%, the “Liver p16 mRNA” value was found to be 55% and the “Open Field Test Time in Center” value is on record as 201%. Besides, in the data set with naturally aged mice, the “Skin Col1a1 mRNA” value is recorded as 2.4 Fold, the “Skin SDF1 mRNA” value came to 1.8 fold, the “Muscle Mass” value is 0.70 g and the “Fat Mass” value is 0.92 g. In addition, the Cataract incidence in the data set with naturally aged mice is given as 73%. Moreover, in data set [1], the “Liver p16 mRNA” value is 52 (±4.4) % and the “Col1a1 mRNA” value is reported as 48 (±3.2) %. Also, the HMGN1 in data set [2] was determined as 147%. In data set [3], the “Lung p16 mRNA” value is given as 41 (±1.5) % and the “Col1a1 mRNA” value is listed as 59 (±2.6) %.
Turning to `Cc1oncc1C(=O)Nc1ccc(C(F)(F)F)cc1` [LX-1603, Leflunomide], the Survival in the data set on senescent foreskin cells turned out to be 97.5. Also, in the data set with naturally aged mice, the “Femur Ctsk mRNA” value worked out at 64%, the “Heart Sur2a mRNA” value is 2.0 fold, the “Joint Col2a1 mRNA” value came out at 2.3 fold and the “Kidney Agtr1a mRNA” value was 77%. Besides, in the data set on naturally aged mice, the “Liver IL6 mRNA” value came out at 61%, the “Liver MMP3 mRNA” value is recorded as 73%, the “Liver p16 mRNA” value turned out to be 74% and the “Skin Col1a1 mRNA” value is 2.6 Fold. Moreover, in the data set with naturally aged mice, the “Skin SDF1 mRNA” value was 1.7 fold, the “Muscle Mass” value amounted to 0.69 g, the “Fat Mass” value is 0.92 g and the Cataract incidence came to 78%. Besides, in data set [1], the “Liver p16 mRNA” value is listed as 67 (±3.5) % and the “Col1a1 mRNA” value is 54 (±2.9) %. The same compound showed an HMGN1 in data set [2] of 163%. Further, in data set [3], the “Lung p16 mRNA” value is reported as 78 (±6.1) % and the “Col1a1 mRNA” value is 48 (±2.5) %.
In the case of `CO[C@]1(C(=O)N[C@@H](C)c2ccc(-n3cc(F)cn3)nc2)CC[C@H](c2nc(C)cc(Nc3cc(C)[nH]n3)n2)CC1` [LX-1902, Pralsetinib], in the data set on senescent foreskin cells, the Survival was determined as 53.4. Also, in the data set with naturally aged mice, the “Femur Ctsk mRNA” value turned out to be 81%, the “Heart Sur2a mRNA” value turned out to be 1.5 fold, the “Joint Col2a1 mRNA” value was 1.5 fold and the “Kidney Agtr1a mRNA” value was found to be 71%. Further, in the data set with naturally aged mice, the “Liver IL6 mRNA” value was found to be 79%, the “Liver MMP3 mRNA” value turned out to be 81%, the “Liver p16 mRNA” value amounted to 72% and the “Open Field Test Time in Center” value was determined as 157%. Also, in the data set on naturally aged mice, the “Skin Col1a1 mRNA” value came out at 1.2 Fold, the “Skin SDF1 mRNA” value stood at 1.6 fold, the “Muscle Mass” value worked out at 0.68 g and the “Fat Mass” value was 0.95 g. The Cataract incidence in the data set with naturally aged mice was found to be 76%. Further, in data set [1], the “Liver p16 mRNA” value was 77 (±9.6) % and the “Col1a1 mRNA” value was 68 (±5.7) %. In data set [2], the HMGN1 was 271%. Besides, in data set [3], the “Lung p16 mRNA” value is 72 (±8.8) % and the “Col1a1 mRNA” value is 64 (±8.2) %.
On to `CC/C=C\C/C=C\C/C=C\C/C=C\C/C=C\C/C=C\CCC(=O)O` [LX-2702, Docosahexaenoic acid], for which the Survival in the data set on senescent foreskin cells is 68.6. Further, in the data set on naturally aged mice, the “Femur Ctsk mRNA” value was found to be 50%, the “Heart Sur2a mRNA” value is 2.3 fold, the “Joint Col2a1 mRNA” value turned out to be 2.8 fold and the “Kidney Agtr1a mRNA” value stood at 57%. Moreover, in the data set with naturally aged mice, the “Liver IL6 mRNA” value was 54%, the “Liver MMP3 mRNA” value is 73%, the “Liver p16 mRNA” value came to 80% and the “Open Field Test Time in Center” value is reported as 211%. In the data set on naturally aged mice, the “Skin Col1a1 mRNA” value is 1.8 Fold, the “Skin SDF1 mRNA” value was determined as 2.7 fold, the “Muscle Mass” value stood at 0.72 g and the “Fat Mass” value worked out at 1.13 g. This compound also displayed a Cataract incidence in the data set on naturally aged mice of 66%. Moreover, in data set [1], the “Liver p16 mRNA” value is reported as 46 (±3.2) % and the “Col1a1 mRNA” value is on record as 53 (±6.1) %. In data set [2], this compound came in with an HMGN1 of 237%. Besides, in data set [3], the “Lung p16 mRNA” value is 53 (±2.8) % and the “Col1a1 mRNA” value was 43 (±5.9) %.
